This is an account of results in ChEMBL document CHEMBL5316313, “Discovery of Novel 3-Phenylpiperidine Derivatives Targeting the β-Catenin/B-Cell Lymphoma 9 Interaction as a Single Agent and in Combination with the Anti-PD-1 Antibody for the Treatment of Colorectal Cancer” (J Med Chem, 2023).

Each structure is given as a SMILES string. Calls of active or inactive are those of the source. The rule behind the calls is not given here.

In data set [1] the target is T1, beta-catenin-B-cell lymphoma 9 protein complex (Homo sapiens, UniProt P35222).
T1 sequence (P35222 whole entry): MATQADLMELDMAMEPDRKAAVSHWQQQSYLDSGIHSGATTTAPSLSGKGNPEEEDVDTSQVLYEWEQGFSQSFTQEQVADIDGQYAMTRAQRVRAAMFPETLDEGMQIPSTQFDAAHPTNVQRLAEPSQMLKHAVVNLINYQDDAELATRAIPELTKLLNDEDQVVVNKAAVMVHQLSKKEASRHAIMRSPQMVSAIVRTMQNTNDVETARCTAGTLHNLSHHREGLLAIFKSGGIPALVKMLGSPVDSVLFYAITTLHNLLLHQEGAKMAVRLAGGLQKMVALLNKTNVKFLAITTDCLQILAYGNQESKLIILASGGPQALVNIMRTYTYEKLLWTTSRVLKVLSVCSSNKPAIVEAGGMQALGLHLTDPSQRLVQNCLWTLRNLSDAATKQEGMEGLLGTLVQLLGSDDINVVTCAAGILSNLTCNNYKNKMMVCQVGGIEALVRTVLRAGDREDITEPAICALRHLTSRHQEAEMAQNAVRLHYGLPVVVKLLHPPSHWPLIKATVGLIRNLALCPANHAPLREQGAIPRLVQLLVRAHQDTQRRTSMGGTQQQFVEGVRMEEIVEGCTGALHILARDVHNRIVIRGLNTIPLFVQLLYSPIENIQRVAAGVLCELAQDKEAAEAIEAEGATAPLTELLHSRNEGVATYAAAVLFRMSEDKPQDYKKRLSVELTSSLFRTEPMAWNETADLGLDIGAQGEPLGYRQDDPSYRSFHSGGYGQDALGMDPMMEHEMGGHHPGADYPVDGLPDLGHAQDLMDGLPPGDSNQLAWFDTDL
T1 sequence (O00512 whole entry): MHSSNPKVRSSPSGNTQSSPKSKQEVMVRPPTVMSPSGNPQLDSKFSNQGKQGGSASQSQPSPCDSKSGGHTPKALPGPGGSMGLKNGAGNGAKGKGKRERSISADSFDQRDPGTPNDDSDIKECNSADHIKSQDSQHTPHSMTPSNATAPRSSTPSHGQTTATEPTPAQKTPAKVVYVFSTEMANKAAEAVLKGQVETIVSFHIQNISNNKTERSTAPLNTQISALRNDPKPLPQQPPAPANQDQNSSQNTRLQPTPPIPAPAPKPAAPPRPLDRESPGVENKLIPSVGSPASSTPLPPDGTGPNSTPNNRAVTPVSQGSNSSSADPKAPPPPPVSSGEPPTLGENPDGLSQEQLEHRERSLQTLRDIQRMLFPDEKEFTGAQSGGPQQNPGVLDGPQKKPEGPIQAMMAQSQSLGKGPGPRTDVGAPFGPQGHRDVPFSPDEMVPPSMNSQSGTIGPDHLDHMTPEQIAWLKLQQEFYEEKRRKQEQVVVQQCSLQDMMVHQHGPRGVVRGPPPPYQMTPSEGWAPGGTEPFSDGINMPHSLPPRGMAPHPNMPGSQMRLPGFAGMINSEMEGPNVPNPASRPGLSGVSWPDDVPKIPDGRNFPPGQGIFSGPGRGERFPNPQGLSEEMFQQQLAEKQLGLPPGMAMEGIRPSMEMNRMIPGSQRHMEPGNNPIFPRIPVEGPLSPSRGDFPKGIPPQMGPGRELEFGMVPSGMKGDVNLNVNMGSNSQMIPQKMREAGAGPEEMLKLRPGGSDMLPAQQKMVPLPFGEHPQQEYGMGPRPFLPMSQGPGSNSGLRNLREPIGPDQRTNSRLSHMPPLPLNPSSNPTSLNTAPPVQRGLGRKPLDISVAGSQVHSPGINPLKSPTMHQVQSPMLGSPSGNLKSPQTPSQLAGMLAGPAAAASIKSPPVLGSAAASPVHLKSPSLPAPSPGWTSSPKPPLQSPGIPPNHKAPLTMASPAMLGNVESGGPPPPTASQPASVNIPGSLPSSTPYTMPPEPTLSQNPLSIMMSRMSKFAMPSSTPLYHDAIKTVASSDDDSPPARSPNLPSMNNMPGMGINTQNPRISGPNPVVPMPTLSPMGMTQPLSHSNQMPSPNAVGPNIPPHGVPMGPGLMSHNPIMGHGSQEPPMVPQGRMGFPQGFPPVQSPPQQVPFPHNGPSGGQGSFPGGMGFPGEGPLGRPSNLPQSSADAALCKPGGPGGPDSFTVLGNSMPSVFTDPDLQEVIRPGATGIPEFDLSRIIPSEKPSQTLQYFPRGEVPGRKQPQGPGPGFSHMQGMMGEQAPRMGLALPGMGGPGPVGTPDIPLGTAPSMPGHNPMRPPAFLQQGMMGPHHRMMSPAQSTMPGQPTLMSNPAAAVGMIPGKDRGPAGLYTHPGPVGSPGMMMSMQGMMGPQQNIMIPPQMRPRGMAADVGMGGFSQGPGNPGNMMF
The data set is described as follows: Inhibition of beta-catenin/BCL9 protein-protein interaction in Wnt-independent human RKO cells assessed as reduction in Axin2 expression level by qRT-PCR assay. It is filed as cell-based.

Data set [2] has as its target T1, beta-catenin-B-cell lymphoma 9 protein complex. The experiment in a line: Inhibition of beta-catenin/BCL9 protein-protein interaction in Wnt-independent human HEK293 cells assessed as reduction in Axin2 expression level by qRT-PCR assay. It is filed as cell-based.
The test system of data set [3] is HEK293. The experiment in a line: Induction of apoptosis in Wnt-independent human HEK293 cells assessed as necrotic cells at 10 uM incubated for 24 hrs by Annexin V-Alexa Fluor 647/PI staining based flow cytomtery (Rvb=1.82%). It is filed as functional.
For data set [4], the system named is HEK293. The experiment in a line: Induction of apoptosis in Wnt-independent human HEK293 cells assessed as early apoptotic cells at 10 uM incubated for 24 hrs by Annexin V-Alexa Fluor 647/PI staining based flow cytomtery (Rvb=17.4%). Type of data set: functional.
Data set [5] has as its system HCT-116. The experiment in a line: Induction of apoptosis in Wnt-dependent human HCT-116 cells assessed as late apoptotic cells at 20 uM incubated for 24 hrs by Annexin V-Alexa Fluor 647/PI staining based flow cytomtery (Rvb=14.7%). Type of data set: functional.
The test system of data set [6] is HCT-116. The experiment in a line: Induction of apoptosis in Wnt-dependent human HCT-116 cells assessed as viable cells at 10 uM incubated for 24 hrs by Annexin V-Alexa Fluor 647/PI staining based flow cytomtery (Rvb=69.5%). Type of data set: functional. The following applies: read-out: Activity.
A further data set concerns EL4. The experiment in a line: Cytotoxicity against CFSE labeled SIINFEKL activated OT-1 mouse derived EL4 cells assessed as change in antigen specific cell viability at 1 to 10 uM preincubated with compound for 24 hrs followed by co-cultured with C57BL/6 mouse splenocyte derived CD8+ T cells in presence of anti-PD-1 antibody cotreatment by flow cytometry. The following applies: dose 1-10 µM. Type of data set: functional, cell-based.

Data set [7] is described as follows: Tmax in Sprague-Dawley rat at 21 mg/kg, ip and measured upto 24 hrs by LC-MS analysis. It is filed as ADME, organism-based. The following applies: in vivo.
The subject of data set [8] is CT26. The experiment in a line: Synergistic antitumor activity in mouse CT26 cells xenografted in BALB/c mouse assessed as increase in Cd8 mRNA expression level in tumor at 30 mg/kg, ip QD in presence of anti-PD-1 antibody cotreatment at 10 mg/kg,ip BIW by qRT-PCR analysis. It is filed as functional, organism-based.
Data set [9] deals with CT26. The settings on record: Mus musculus, BALB/c, dose 30.0 mg/kg, route ip.
Description: In vivo inhibition of Wnt signaling pathway in mouse CT26 cells implanted in BALB/c mouse assessed as reduction in Lgr5 mRNA expression level in tumor at 30 mg/kg, ip QD by qRT-PCR analysis

For `O=C1[C@H](Cc2ccc(O)cc2)N2C(=O)CCN(C(=O)NCc3ccccc3)[C@H]2CN1Cc1cccc2ccccc12`, the IC50 in data set [1] was 26.3 µM; in data set [2], 38.3 µM.

Turning to `CC(C)c1ccc(-c2cccc(S(=O)(=O)N3CCCC(c4cccc(OC(C)(C)C(=O)NS(=O)(=O)c5ccc(C(F)(F)F)cc5)c4)C3)c2)cc1` (stereo not given), the Activity in the data set with HEK293 [3] was 2.28%; in the data set with HEK293 [4] it was 12.1%; with HCT-116 [5], 33.1%; in the data set with EL4, “Dose-Dependent Effect”. Also, in the data set on HCT-116 [6], the viability at 10 µM stood at 59.8%. For the same compound, in data set [7], the Tmax came out at 30 min. Moreover, in the data set with CT26 [8], the result was Active. In addition, the inhibition result with CT26 [9] is “Active”.
